Experimental data taken from PMC7366379 (Journal of the American Chemical Society, 2020).
Values joined by “and” are separate entries in the source; they are usually repeats but may differ in a detail not shown here. Identical values can stand only once. Like-named read-outs stand apart in the source and are kept apart here. Side chains are listed from the residue outwards. Ends that are not written are not given here. Peptide text beside a SMILES is read from it. * marks the point of attachment. Biotin = O=C1N[C@H]2[C@H](CS[C@H]2CCCCC(=O)*)N1

Columns and labels:
OmpF [1] = biological target: T1, OmpF (Escherichia coli, UniProt P02931); assay type: binding; set-up: made in house; host or cells: E. coli BZB1107 (ompF-, ompC-), plasmid pNGH72; settings: for k1 / k2 / k3 / k–1 / k–2 / k–3: extrapolated to 0 mV; for k1: DPhPC bilayer, 20 mM potassium phosphate pH 6.4, 0.1 M KCl, 20.5 °C, at least three independent experiments; for k2 / k3 / k–1 / k–2 / k–3: pH 6.4, 0.1 M KCl
T1 sequence (P02931 23-362): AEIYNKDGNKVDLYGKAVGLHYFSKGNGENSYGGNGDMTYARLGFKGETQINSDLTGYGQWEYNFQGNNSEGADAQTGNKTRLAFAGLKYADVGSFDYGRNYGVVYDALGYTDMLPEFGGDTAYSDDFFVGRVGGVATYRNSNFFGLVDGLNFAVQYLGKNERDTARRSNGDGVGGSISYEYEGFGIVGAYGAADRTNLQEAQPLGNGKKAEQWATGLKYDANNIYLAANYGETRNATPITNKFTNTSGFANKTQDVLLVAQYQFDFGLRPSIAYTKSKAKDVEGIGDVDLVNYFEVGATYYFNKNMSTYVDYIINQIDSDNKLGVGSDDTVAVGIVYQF

OmpF [2] = biological target: T1, OmpF
[3] = Solubility of IUTD constructs; assay type: physicochemical
OmpF (Escherichia coli) = OmpF (Escherichia coli) (UniProt P02931); assay: ITC; settings: cited from earlier work
[4] = biological target: OmpF porin trimer (outer-membrane protein F) (Escherichia coli) (UniProt P02931); assay: single-channel electrical recording in planar lipid bilayer
[5] = biological target: OmpF porin trimer (outer-membrane protein F) (Escherichia coli) (UniProt P02931); assay: as above; remark: listed apart in the source
[6] = biological target: OmpF porin trimer (outer-membrane protein F) (Escherichia coli) (UniProt P02931); assay: single-channel electrical recording in planar lipid bilayer; single OmpF trimer in a DPhPC bilayer; binder added to the extracellular side; -100 mV (as stated for Figures 2, 3 and 5); 20 mM potassium phosphate pH 6.4, 0.1 M KCl, 20.5 °C
[7] = biological target: AEDANS-labelled OBS1-fusion protein (colicin E9 OmpF-binding site 1 fused to a carrier) (UniProt P09883); assay: stopped-flow FRET (OmpF tryptophans to AEDANS); settings: pH 6.5, 4 °C, no added salt stated (20 mM potassium phosphate only)
OmpF porin trimer [8] = biological target: T2, OmpF porin trimer (E. coli, UniProt P02931 23-362); assay: single-channel electrical recording in planar lipid bilayers; OmpF trimer with two subunits already occluded by untagged IUTD (added to the extracellular side at -100 mV, rest removed by buffer exchange); 1 µM peptide then added to the periplasmic side at +50 mV; settings: both partners purified
T2 sequence (looked up): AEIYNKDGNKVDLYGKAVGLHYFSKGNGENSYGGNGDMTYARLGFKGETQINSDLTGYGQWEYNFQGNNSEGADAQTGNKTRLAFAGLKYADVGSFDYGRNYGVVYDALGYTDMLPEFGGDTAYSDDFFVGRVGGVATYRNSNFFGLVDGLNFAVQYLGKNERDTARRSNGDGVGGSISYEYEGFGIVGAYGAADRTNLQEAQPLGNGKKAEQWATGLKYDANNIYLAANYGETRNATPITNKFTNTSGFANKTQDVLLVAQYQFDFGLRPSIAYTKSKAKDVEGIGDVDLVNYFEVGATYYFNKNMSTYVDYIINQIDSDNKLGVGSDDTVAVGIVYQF

[9] = biological target: T3, OmpF porin trimer (outer-membrane protein F) (Escherichia coli, UniProt P02931 23-362); assay: single-channel electrical recording in planar lipid bilayer; single OmpF trimer in a DPhPC bilayer; mSA-capped peptide added to the periplasmic side; +100 mV (where stated); 20 mM potassium phosphate pH 6.4, 0.1 M KCl, 20.5 °C; settings: both partners purified
T3 sequence (looked up): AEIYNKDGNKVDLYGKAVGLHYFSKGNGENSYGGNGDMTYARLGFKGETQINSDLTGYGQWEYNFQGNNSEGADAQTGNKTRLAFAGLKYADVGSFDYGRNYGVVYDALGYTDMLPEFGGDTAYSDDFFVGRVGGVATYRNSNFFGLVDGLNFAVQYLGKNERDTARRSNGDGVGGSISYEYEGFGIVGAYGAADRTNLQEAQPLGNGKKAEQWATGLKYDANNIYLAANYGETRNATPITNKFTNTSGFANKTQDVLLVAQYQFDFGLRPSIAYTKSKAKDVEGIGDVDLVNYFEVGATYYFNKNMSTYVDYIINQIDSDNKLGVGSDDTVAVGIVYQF

[10] = biological target: T3, OmpF porin trimer (outer-membrane …); assay: single-channel electrical recording in planar lipid bilayer; single OmpF trimer in a DPhPC bilayer; free peptide added to the periplasmic (trans) side, positive potentials; constants of Table 1 extrapolated to 0 mV, Kd for a single OmpF subunit; 20 mM potassium phosphate pH 6.4, 0.1 M KCl, 20.5 °C; settings: both partners purified
[11] = biological target: T3, OmpF porin trimer (outer-membrane …); assay: single-channel electrical recording in planar lipid bilayer; single OmpF trimer in a DPhPC bilayer; free peptide added to the extracellular (cis) side, negative potentials; constants of Table 1 extrapolated to 0 mV, Kd for a single OmpF subunit; 20 mM potassium phosphate pH 6.4, 0.1 M KCl, 20.5 °C; settings: both partners purified
[12] = biological target: T3, OmpF porin trimer (outer-membrane …); assay: as above; settings: both partners purified; remark: listed apart in the source
[13] = biological target: T3, OmpF porin trimer (outer-membrane …); assay: single-channel electrical recording in planar lipid bilayer; single OmpF trimer in a DPhPC bilayer; free peptide added to the periplasmic (trans) side, positive potentials; constants of Table 1 extrapolated to 0 mV, Kd for a single OmpF subunit; 20 mM potassium phosphate pH 6.4, 0.1 M KCl, 20.5 °C; settings: both partners purified; remark: listed apart in the source
OmpF porin trimer [14] = biological target: T2, OmpF porin trimer; assay: single-channel electrical recording in planar lipid bilayers; current-voltage plots (-100 to +100 mV) of individual OmpF pores before and after addition of the binder to the extracellular side; settings: both partners purified
[15] = biological target: T3, OmpF porin trimer (outer-membrane …); assay: single-channel electrical recording in planar lipid bilayer; single OmpF trimer in a DPhPC bilayer; binder added to the extracellular side; -100 mV (as stated for Figures 2, 3 and 5); 20 mM potassium phosphate pH 6.4, 0.1 M KCl, 20.5 °C; settings: both partners purified
OmpF porin trimer [16] = biological target: T2, OmpF porin trimer; assay: single-channel electrical recording in planar lipid bilayers; single OmpF trimer in a DPhPC bilayer; peptide added to the extracellular side; phosphate buffer pH 6.4, 100 mM KCl; rate constants at 0 mV by extrapolation from negative applied potentials; Kd for the OmpF monomer (k-1 divided by one-third of k1); settings: both partners purified
[17] = peptide from the periplasmic side, ± s.d., at least three experiments
[18] = peptide from the extracellular side, ± s.d., at least three experiments

AEDANS-labelled OBS1-fusion protein (colicin E9 OmpF-binding site 1 fused to a carrier), sequence (P09883 whole entry, the tested form may be a part): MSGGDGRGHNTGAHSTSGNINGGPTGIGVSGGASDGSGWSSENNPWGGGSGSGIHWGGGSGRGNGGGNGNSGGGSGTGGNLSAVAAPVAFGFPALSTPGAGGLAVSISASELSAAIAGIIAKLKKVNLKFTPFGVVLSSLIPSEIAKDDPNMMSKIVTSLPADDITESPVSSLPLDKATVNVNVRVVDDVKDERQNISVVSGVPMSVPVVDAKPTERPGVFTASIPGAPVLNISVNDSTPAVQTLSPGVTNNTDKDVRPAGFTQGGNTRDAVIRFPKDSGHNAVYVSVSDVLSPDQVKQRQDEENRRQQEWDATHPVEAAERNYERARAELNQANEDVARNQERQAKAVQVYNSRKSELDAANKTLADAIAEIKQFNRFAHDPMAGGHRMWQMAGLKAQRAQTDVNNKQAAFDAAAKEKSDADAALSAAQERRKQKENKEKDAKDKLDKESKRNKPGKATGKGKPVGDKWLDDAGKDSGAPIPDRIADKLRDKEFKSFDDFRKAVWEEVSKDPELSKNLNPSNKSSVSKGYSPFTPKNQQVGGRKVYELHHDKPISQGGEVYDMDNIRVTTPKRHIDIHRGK

Molecule: C[C@H](NC(=O)CNC(=O)[C@@H](NC(=O)[C@H](CC(N)=O)NC(=O)[C@H](Cc1c[nH]cn1)NC(=O)CNC(=O)[C@H](CCCNC(=N)N)NC(=O)CNC(=O)[C@H](CC(=O)O)NC(=O)CNC(=O)CNC(=O)[C@@H](N)CO)[C@@H](C)O)C(=O)N[C@@H](Cc1c[nH]cn1)C(=O)N[C@@H](CO)C(=O)N[C@H](C(=O)N[C@@H](CO)C(=O)NCC(N)=O)[C@@H](C)O [OBS1_2–18] (H-SGGDGRGHNTGAHSTSG-NH2)
- k1 (OmpF [1]; peptide from the periplasmic side, ± s.d.): 9.6 ± 0.60 10^6 M^–1 s^–1
- k2 (OmpF [1]; [17]): 6.1 ± 0.42 10^6 M^–1 s^–1
- k3 (OmpF [1]; [17]): 3.2 ± 0.25 10^6 M^–1 s^–1
- k–1 (OmpF [1]; [17]): 43 ± 1.5 s^–1
- k–2 (OmpF [1]; [17]): 78 ± 3.9 s^–1
- k–3 (OmpF [1]; [17]): 111 ± 6.6 s^–1

Molecule: CC[C@H](C)[C@H](NC(C)=O)C(=O)N[C@@H](Cc1c[nH]cn1)C(=O)N[C@@H](Cc1c[nH]c2ccccc12)C(=O)NCC(=O)NCC(=O)NCC(=O)N[C@@H](CO)C(=O)NCC(=O)N[C@@H](CCCNC(=N)N)C(=O)NCC(N)=O [OBS2_54–63] (Ac-IHWGGGSGRG-NH2)
- higher affinity from the periplasmic side than from the extracellular side (OmpF [1]; OBS2 peptide, PLB recording): 200 times
- slower dissociation when added to the periplasmic side than to the extracellular side (OmpF [1]; OBS2 peptide, PLB recording): 4 orders of magnitude
- k1 (OmpF [1]; peptide from the extracellular side, ± s.d.): 4.0 ± 0.60 10^6 M^–1 s^–1
- k3 (OmpF [1]; peptide from the extracellular side, fewer events (<100), error relatively large): 0.97 ± 0.50 ^b 10^6 M^–1 s^–1
- k2 (OmpF [1]; [18]): 2.2 ± 0.64 10^6 M^–1 s^–1
- k–1 (OmpF [1]; [18]): 1.3 ± 0.10 × 10^4 s^–1
- k–2 (OmpF [1]; [18]): 2.5 ± 0.34 × 10^4 s^–1
- k–3 (OmpF [1]; [18]): 3.2 ± 0.47 × 10^4 s^–1

Molecule: ColE9_2–83-ENLYFQ [IUTD, intrinsically unstructured N-terminal translocation domain of ColE9, residues 2–83, released by TEV cleavage]
- k12′ (rebinding) (OmpF [2]): ≈ 10^3 s^–1
- Association with a first subunit: k01 (OmpF [2]; SD): 6.3 ± 1.9 104 M-1s-1 and 10 ± 4.1 104 M-1s-1
- Initial binding of the OBS1 sequence to a second subunit: k12 (OmpF [2]; SD): 58 ± 13 s⁻¹ and 38 ± 17 s⁻¹
- Rebinding of the OBS1 sequence to a second subunit: k12’ (OmpF [2]; SD): 2200 ± 270 s⁻¹ and 1400 ± 340 s⁻¹
- Unbinding of the OBS1 sequence from the second subunit: k21 (OmpF [2]; SD): 2.6 ± 1.1 s⁻¹ and 3.4 ± 0.7 s⁻¹
- k01, association with the first OmpF subunit (OmpF [2]; pH 6.4): ≈ 10^4 M^–1 s^–1
- k12, initial binding of OBS1 to the second OmpF subunit (OmpF [2]; pH 6.4): ≈ 10 ^2 s^–1
- occlusion of OmpF subunits after addition to the extracellular side (in words) (OmpF [2]; pH 6.4): sequential occlusion of two OmpF subunits
- solubility [3]: ≤ 5 µM

Molecule: Colicin E9 OBS1 2-18 (from UniProt P09883)
- Kd (OmpF (Escherichia coli)): 1.8 µM

Molecule: Colicin E9 OBS2 54-63 (from UniProt P09883)
- Kd (OmpF (Escherichia coli)): 24 µM

Molecule: IUTD-fusion (ColE9_(1–83)-TEV-E9 DNase·Im9His6) (from UniProt P09883 1-83; P13479 1-86) (complex)
- k01 (association with the first subunit, at 0 mV) [4]: 9800 M⁻¹ s⁻¹
- other [4]: 181 s⁻¹
- k21' (unbinding of OBS1 from the second subunit, at 0 mV) [5]: 3.9 s⁻¹
- other [5]: 5300 s⁻¹
- effective molarity (EM) [6]: 0.9 mM
- koff (failed attempts at threading during the latency) [6]: 300 s⁻¹

Molecule: OmpF porin (outer membrane protein F)
- k1 (association rate constant) [7]: 9.80 ± 0.31 μM^–1 s^–1
- k–1 (dissociation rate constant) [7]: 3.22 ± 0.03 s^–1

Molecule: SGGDGRGHNTGAHSTSGNINGGPTG-NH2 (peptide, UniProt P09883 2-26, looked up) [OBS1_(2-26) peptide (NH2-OBS1_(2-26)-CONH2)]
- binding result (OmpF porin trimer [8]): binds

Molecule: SGGDGRGHNTGAHSTSGSSGGSSGGSSGGC([HPDP-Biotin]) (also: bound to monovalent streptavidin) [OBS1–mSA (OBS1_(2-18)-Linker-Cys-HPDP-Biotin bound to monovalent streptavidin)]
- koff [9]: ~600 s⁻¹
- kon [9]: ~5e+06 M⁻¹ s⁻¹

Molecule: Ac-IHWGGGSGRG-NH2 [OBS2_(54-63) peptide (acetyl-OBS2_(54-63)-CONH2)]
- Kd [10]: 60 µM
- Kd [11]: 11000 µM

Molecule: H-SGGDGRGHNTGAHSTSG-NH2
- Kd [12]: 5000 µM
- Kd [13]: 13 µM

B1: untagged IUTD (ColE9_(2-83)-ENLYFQ) (domain or fragment)
chain: SGGDGRGHNTGAHSTSGNINGGPTGIGVSGGASDGSGWSSENNPWGGGSGSGIHWGGGSGRGNGGGNGNSGGGSGTGGNLSAENLYFQ
- binding result (OmpF porin trimer [14]): binds

B2: free IUTD (ColE9_(2–83)-ENLYFQ) (domain or fragment)
chain: SGGDGRGHNTGAHSTSGNINGGPTGIGVSGGASDGSGWSSENNPWGGGSGSGIHWGGGSGRGNGGGNGNSGGGSGTGGNLSAENLYFQ
- binding result [15]: binds

Molecule: SGGDGRGHNTGAHSTSG-NH2
- Kd (OmpF porin trimer [16]): 5400 µM

Molecule: C([HPDP-Biotin])GGSSGGSSGGSSIHWGGGSGRG (also: bound to monovalent streptavidin) [mSA–OBS2 (Biotin-HPDP-Cys-Linker-OBS2_(54-63) bound to monovalent streptavidin)]
- binding result [9]: binds
